Values of other authors in patent publication US9949942B2, “Sustained release delivery of active agents to treat glaucoma and ocular hypertension” (Mati Therapeutics Inc., priority 0208, dated 2018).

Columns and labels:
[1] = man; after topical administration
[2] = not given; remark: listed apart in the source

CC(C)OC(=O)CCC/C=C\C[C@@H]1[C@@H](CC[C@@H](O)CCc2ccccc2)[C@H](O)C[C@@H]1O [Latanoprost, isopropyl-(Z)-7[(1R,2R,3R,5S)3,5-dihydroxy-2-[(3R)-3-hydroxy-5-phenylpentyl]cyclopentyl]-5-heptenoate]
solubility in acetone, ethanol, ethyl acetate, isopropanol, methanol and octanol (acetone, ethanol, ethyl acetate, isopropanol, methanol, octanol): freely soluble
solubility in acetonitrile (acetonitrile): very soluble
solubility in water (water): practically insoluble
time to peak concentration in the aqueous humor [1]: about two
frequency of retinal artery embolus, retinal detachment, vitreous hemorrhage from diabetic retinopathy ([2]; clinical trials): rarely reported
rate of upper respiratory tract infection/cold/flu (most common systemic adverse events) ([2]; clinical trials): approximately 4%
subjects requiring discontinuation of therapy because of intolerance to conjunctival hyperemia ([2]; clinical trials): Less than 1%
ocular adverse events: subjects affected ([2]; conjunctivitis, diplopia, discharge from the eye): Less than 1%
